Reference: patent publication US20230416692A1 (BOARD OF REGENTS, THE UNIVERSITY OF TEXAS SYSTEM, priority 2020, published 2023)
Values joined by “and” are separate entries in the source; they are usually repeats but may differ in a detail not shown here. Equal values may be shown once. Read-outs that look alike come from different tables or passages of the source.

Legend:
SARS-CoV-2-Nluc [1] = assay: microbe, parasite or virus in culture; format: cell-based
[2] = human exposures in the clinics, cited from earlier work; for Cmax: read-out: Exposure (μM): Cmax
plasma protein = conditions: data from literature; cited from earlier work
SARS-CoV-2-Nluc [3] = assay: microbe, parasite or virus in culture; format: cell-based; remark: listed apart in the source
[4] = Severe acute respiratory syndrome coronavirus 2, 48 h
[5] = Severe acute respiratory syndrome coronavirus 2
[6] = Severe acute respiratory syndrome coronavirus 2, Vero C1008
[7] = Severe acute respiratory syndrome coronavirus 2, Vero C1008, 48 h

| Molecule | EC50 (SARS-CoV-2-Nluc [1]; [4]) | CC50 (A549-hACE2 cells; human) | Plasma protein binding (%) (plasma protein) | other results |
| --- | --- | --- | --- | --- |
| Cc1cc(/C=C/C#N)cc(C)c1Nc1ccnc(Nc2ccc(C#N)cc2)n1 [Rilpivirine] | 7.8 ± 1.04 µM | 14.6 ± 1.6 µM | 99.7% | Exposure (μM): Cmin [2]: 0.30 µM; Cmax [2]: 0.83 µM |
| O=C(Nc1ccc([N+](=O)[O-])cc1Cl)c1cc(Cl)ccc1O [Niclosamide] | 0.715 µM | 1.28 ± 0.23 µM |  | SI (selectivity index) (SARS-CoV-2-Nluc [1]): 1.8 |
| O=C(NCc1c(F)cc(F)cc1F)c1cn2c(c(O)c1=O)C(=O)N1[C@H]3CC[C@H](C3)O[C@@H]1C2 [Bictegravir] | > 10 µM | > 50 µM | >99% |  |
| NC(=O)c1nc(F)c[nH]c1=O [Favipiravir] | > 10 µM | > 50 µM |  |  |
| CCC[C@@]1(CCc2ccccc2)CC(O)=C([C@H](CC)c2cccc(NS(=O)(=O)c3ccc(C(F)(F)F)cn3)c2)C(=O)O1 [Tipranavir] | 8 to 9 µM | 28.4 ± 0.5 µM | 99.9% | EC50 (SARS-CoV-2-Nluc [1]): 8.65 ± 0.16 µM; SI (selectivity index) (SARS-CoV-2-Nluc [1]): 3.3; Exposure (μM): Cmin [2]: 30.8 µM; Cmax [2]: 130 µM |
| CC(C)c1nc(CN(C)C(=O)N[C@@H](CCN2CCOCC2)C(=O)N[C@H](CC[C@H](Cc2ccccc2)NC(=O)OCc2cncs2)Cc2ccccc2)cs1 [Cobicistat] |  | 47.3 ± 2.5 µM |  | SI (selectivity index) (SARS-CoV-2-Nluc [1]): 17.3; EC50 (SARS-CoV-2-Nluc [1]; [5]): 0.77 to 2.74 µM |
| Cc1c(O)cccc1C(=O)N[C@@H](CSc1ccccc1)[C@H](O)CN1C[C@H]2CCCC[C@H]2C[C@H]1C(=O)NC(C)(C)C [Nelfinavir] | 0.77 to 2.74 µM | 12 ± 1.3 µM | >98% | EC50 (SARS-CoV-2-Nluc [1]): 0.77 µM; SI (selectivity index) (SARS-CoV-2-Nluc [1]): 16 and 15.7; EC50 (SARS-CoV-2-Nluc [1]; [5]): 0.77 to 2.74 µM; Exposure (μM): Cmin [2]: 2.6 µM; Cmax [2]: 8.3 µM |
| CC(C)CN(C[C@@H](O)[C@H](Cc1ccccc1)NC(=O)O[C@H]1CCOC1)S(=O)(=O)c1ccc(N)cc1 [Amprenavir] | > 10 µM | > 50 µM | 90% | activity against SARS-CoV-2-Nluc (in words) (SARS-CoV-2-Nluc [1]): inactive |
| O=C1Nc2ccc(Cl)cc2[C@@](C#CC2CC2)(C(F)(F)F)O1 [Efavirenz] | > 9.6 µM | 37.6 ± 10.7 µM | 99.5-99.8% | SI (selectivity index) (SARS-CoV-2-Nluc [1]): <3.9; Exposure (μM): Cmin [2]: 5.6 µM; Cmax [2]: 12.9 µM |
| CC[C@@H]1C[C@]1(NC(=O)[C@@H]1C[C@@H](Oc2cc(-c3csc(NC(C)C)n3)nc3c(Cl)c(OCCN4CCOCC4)ccc23)CN1C(=O)[C@@H](NC(=O)O[C@@H]1C[C@@H]2C[C@@H]2C1)C(C)(C)C)C(=O)O [GS-9451] |  |  |  | EC50 (SARS-CoV-2-Nluc [1]; read-out: EC50): > 10 µM; CC50 (A549-hACE2 cells): > 50 µM |
| CCC(CC)O[C@@H]1C=C(C(=O)O)C[C@H](N)[C@H]1NC(C)=O [Oseltamivir carboxylate] | > 10 µM | > 50 µM |  |  |
| CC(C)OC(=O)[C@H](C)N[P@](=O)(CO[C@H](C)Cn1cnc2c(N)ncnc21)Oc1ccccc1 [Tenofovir alafenamide] | > 10 µM | > 50 µM | 80% | activity against SARS-CoV-2-Nluc (in words) (SARS-CoV-2-Nluc [1]): inactive; Cmax [2]: 0.4 µM |
| CCN(CC)CCCC(C)Nc1ccnc2cc(Cl)ccc12 (stereo not shown) [Chloroquine] | 1.32 µM | > 50 µM |  | EC50 (SARS-CoV-2-Nluc [1]; [5]): 1.32 µM; EC50 (SARS-CoV-2-Nluc [3]; [6]): 3.52 µM; EC50 (SARS-CoV-2-Nluc [3]; [7]): 3.52 µM |
| CC(C)OC(=O)[C@H](C)N[P@](=O)(OC[C@H]1O[C@@H](n2ccc(=O)[nH]c2=O)[C@](C)(F)[C@@H]1O)Oc1ccccc1 [Sofosbuvir] | > 10 µM | > 50 µM |  | activity against SARS-CoV-2-Nluc (in words) (SARS-CoV-2-Nluc [1]): inactive |
| CC(C)CN(C[C@@H](O)[C@H](Cc1ccccc1)NC(=O)O[C@H]1CO[C@H]2OCC[C@H]21)S(=O)(=O)c1ccc(N)cc1 [Darunavir] | > 10 µM | > 50 µM |  | activity against SARS-CoV-2-Nluc (in words) (SARS-CoV-2-Nluc [1]): inactive |
| Nc1ncnc2c1ncn2[C@@H]1O[C@H](OCP(=O)(O)O)C=C1F [Rovafovir] |  |  | 58% | EC50 (SARS-CoV-2-Nluc [1]; read-out: EC50): > 10 µM; CC50 (A549-hACE2 cells): > 50 µM |
| Fc1ccccc1-c1nc2ccn(Cc3ccc(-c4ccc(C(F)(F)F)cc4C(F)(F)F)nn3)cc-2n1 [Tegobuvir] | > 10 µM | 17.9 ± 3.1 µM |  |  |
| COC[C@H]1C[C@@H](c2ncc(-c3ccc4c(c3)COc3cc5c(ccc6nc([C@@H]7CC[C@H](C)N7C(=O)[C@@H](NC(=O)OC)C(C)C)[nH]c65)cc3-4)[nH]2)N(C(=O)[C@H](NC(=O)OC)c2ccccc2)C1 [Velpatasvir] | > 10 µM | > 50 µM |  | activity against SARS-CoV-2-Nluc (in words) (SARS-CoV-2-Nluc [1]): inactive |
| Cc1cn2nc([C@@H]3CCCCN3C(=O)c3cc(Cl)ccc3NS(C)(=O)=O)cc2nc1N1CC[C@H](N)C1 [Presatovir] | 2.53 µM |  |  |  |
| Voxilaprevir |  |  |  | EC50 (SARS-CoV-2-Nluc [1]; read-out: EC50): > 10 µM; CC50 (A549-hACE2 cells): 16 ± 1.2 µM |
| Nc1ccn(C[C@@H](CO)OCP(=O)(O)O)c(=O)n1 [Cidofovir] | > 10 µM | > 50 µM |  |  |
| CCC(CC)COC(=O)[C@H](C)N[P@](=O)(OC[C@H]1O[C@@](C#N)(c2ccc3c(N)ncnn23)[C@H](O)[C@@H]1O)Oc1ccccc1 [Remdesivir] | 0.115 µM |  |  | SI (selectivity index) (SARS-CoV-2-Nluc [1]): 284; EC50 (SARS-CoV-2-Nluc [1]; [5]): 0.115 µM; EC50 (SARS-CoV-2-Nluc [3]; [6]): 1.28 µM; EC50 (SARS-CoV-2-Nluc [3]; [7]): 1.28 µM |
